Key:
Wnt/β-catenin signaling [1] = experiment: Axin2 expression by qPCR in hCMEC/D3 cerebral microvascular endothelial cells; format: cell-based, human; conditions: serum free medium, 24 h
Method: The expression level of Axin2, a specific target of Wnt/β-catenin signaling, was measured by qPCR. The results represented in the histograms are shown as the means±SE and are the average of 3 independent experiments. One-way ANOVA with post hoc Tukey-Kramer honest significant difference test. **, p<0.01.
Studies in past ten years have established that the Wnt/β-catenin pathway is a key pathway required not only for BBB formation but also for BBB integrity and function. Moreover, BBB breakdown following middle cerebral artery occlusion can be potently rescued in mice in which Wnt/β-catenin is specifically activated in brain endothelial cells. On the other hand, dysregulation of Wnt/β-catenin may limit remyelination of white matter lesions (WMLs) and render the BBB leaky.

Wnt/β-catenin signaling [2] = experiment: Total cellular β-catenin level by Western blotting in neuronal N2a cells; format: cell-based; conditions: 24 h, Western blotting normalized to actin
Method: (A) Compound 1039 activates Wnt/β-catenin signaling in HEK293 cells. HEK293 cells were transfected with Super8XTOPFlash and 8-galactosidase vectors along with Wnt3A or control vector. After 24 h incubation, cells were treated with 1039 at the indicated concentrations for 24 h. The luciferase activity was then measured and normalized to the activity of the 8-galactosidase. All the values are the average of triplicate determinations with the SD values indicated by error bars. This experiment is a representative of 3 such experiments performed with similar data. (B, C) N2a cells were treated with Compound 1039 at the indicated concentrations for 24 h. (B) The levels of total cellular β-catenin were examined by Western blotting. (C) The intensity of the β-catenin bands was quantified and normalized to the corresponding signal for actin. The results represented in the histograms are shown as the mean±SD and are the average of 3 independent experiments.
Wnt/β-catenin signaling plays a critical role in neuronal survival, neurogenesis, synaptogenesis, neuronal plasticity and synaptic plasticity.

Structure (SMILES) | activation of Wnt/β-catenin signaling (Axin2 expression, qPCR) (Wnt/β-catenin signaling [1]) | β-catenin level (Wnt/β-catenin signaling [2])
Nc1ccccc1NC(=O)c1ccc(C(=O)NCC2CCN2C2CCCC2)cn1 (centres unmarked) [Compound 1015] | able to activate Wnt/β-catenin signaling | –
Nc1ccccc1NC(=O)c1ccc(C(=O)NCC2CCCN2CCc2ccccc2)cn1 (centres unmarked) [Compound 1039] | – | enhances β-catenin level in a dose dependent manner

From patent publication US20240066038A1, “WNT MODULATORS TO TREAT CENTRAL NERVOUS SYSTEM INJURIES” (MAYO FOUNDATION FOR MEDICAL EDUCATION AND RESEARCH, priority 2021, published 2024)
